Data published in patent publication US11013235B2 (priority 2015, dated 2021).
Like-named read-outs stand apart in the source and are kept apart here.

Legend:
Assay type in all cases: in vivo
[1] = test system: Candidatus 'Liberibacter asiaticus'; settings: spraying every 15 days, 12 months after treatment, Citrus sinensis with HLB
Phytophthora parasitica = assay: Control of Phytophthora parasitica disease in tobacco (Pp-Nt); settings: 1 μM spraying every 24 hours for one week, water control 91
Rhizoctonia solani [2] = assay: Control of Rhizoctonia solani disease in tobacco (Rs-Nt); settings: 1 μM spraying every 24 hours for one week, water control 87
Nocardia sp = assay: Control of Nocardia sp disease in tobacco (N-Nt); settings: 1 μM spraying every 24 hours for one week, water control 58
Procedure, shortened: (§1)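 Inoculated plants received a daily 1 μM compound spray for seven days. Outcomes were plant mortality for Nocardia, leaves with symptoms (%) for Alternaria, and measured lesion diameter for Botrytis, relative to water-treated plants.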

Rhizoctonia solani [3] = assay: Control of Rhizoctonia solani disease in tomato (Rs-SI); settings: 1 μM spraying every 24 hours for one week, water control 96
Alternaria solani = assay: Control of Alternaria solani disease in tomato (As-SI); settings: 1 μM spraying every 24 hours for one week, water control 68
Procedure, shortened: as §1

Botrytis cinerea [4] = assay: Control of Botrytis cinerea disease in Arabidopsis (Bc-At); settings: 1 μM spraying every 24 hours for one week, water control 8.7
Procedure, shortened: as §1

Botrytis cinerea [5] = assay: Control of Botrytis cinerea disease in tobacco (Bc-Nt); settings: 1 μM spraying every 24 hours for one week, water control 6.7
Procedure, shortened: as §1

Botrytis cinerea [6] = assay: Control of Botrytis cinerea disease in tomato (Bc-SI); settings: 1 μM spraying every 24 hours for one week, water control 7.4
Procedure, shortened: as §1

Radopholus similis = assay: Nematode control, nodules per plant: Radopholus similis; settings: 1 μM foliar application every 5 days, evaluation 35 days after, control 45
Procedure, shortened: (§2)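 Read-out: nodule count per plant at final evaluation 35 days after start. Foliar spray of 1 μM compound (ethanol stock diluted in water) repeated every 5 days, ten plants per treatment.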

Meloidogyne incognita = assay: Nematode control, nodules per plant: Meloidogyne incognita; settings: 1 μM foliar application every 5 days, evaluation 35 days after, control 34
Procedure, shortened: as §2

Pratylenchus coffeae = assay: Nematode control, nodules per plant: Pratylenchus coffeae; settings: 1 μM foliar application every 5 days, evaluation 35 days after, control 42
Procedure, shortened: as §2

| Compound | Titers of the bacterium ([1]; 0.001 μM) | Titers of the bacterium ([1]; 0.01 μM) | Titers of the bacterium ([1]; 1 μM) | Titers of the bacterium ([1]; 5 μM) | Titers of the bacterium ([1]; 10 μM) | Pp-Nt: percentage of mortality (Phytophthora parasitica) | Rs-Nt: percentage of mortality (Rhizoctonia solani [2]) | N-Nt: percentage of mortality (Nocardia sp) | Rs-SI: percentage of mortality (Rhizoctonia solani [3]) | As-SI: percentage of leaves with the disease symptoms (Alternaria solani) | Bc-At: mean of the diameter of the lesion (Botrytis cinerea [4]) | Bc-Nt: mean of the diameter of the lesion (Botrytis cinerea [5]) | Bc-SI: mean of the diameter of the lesion (Botrytis cinerea [6]) | Rs: number of nodules per plant (Radopholus similis) | Mi: number of nodules per plant (Meloidogyne incognita) | Pc: number of nodules per plant (Pratylenchus coffeae) |
| --- | --- | --- | --- | --- | --- | --- | --- | --- | --- | --- | --- | --- | --- | --- | --- | --- |
| Cc1nc(N2CCN(c3ccccc3)CC2)ncc1C(=O)N1CC2CC(O)C(O)CC2C1 (stereo not drawn) [IIID, 2-{[4-methyl-2-(4-phenylpiperazin-1-yl)pyrimidin-5-yl]carbonyl}-octahydro-1H-isoindole-5,6-diol] | 985 copies per reaction | 1 copies per reaction | 0 copies per reaction | 98 copies per reaction | 9653 copies per reaction | 0% | 0% | 1% | 2% | 8% | 1.1 mm | 2.0 mm | 1.6 mm | 0 | 0 | 18 |
| O=C(c1cnc(N2CCN(C3CCCCC3)CC2)nc1)N1CC2CC(O)C(O)CC2C1 (stereo not drawn) [IIIE, 2-{[2-(4-cyclohexylpiperazin-1-yl)pyrimidin-5-yl]carbonyl}-octahydro-1H-isoindole-5,6-diol] | 657 copies per reaction | 7 copies per reaction | 0 copies per reaction | 67 copies per reaction | 8653 copies per reaction | 0% | 0% | 0% | 0% | 7% | 0.5 mm | 0.9 mm | 0.8 mm | 0 | 0 | 0 |
| Cc1nc(N2CCN(C3CCCCC3)CC2)ncc1C(=O)N1CC2CC(O)C(O)CC2C1 (stereo not drawn) [IIIF, 2-{[2-(4-cyclohexylpiperazin-1-yl)-4-methylpyrimidin-5-yl]carbonyl}-octahydro-1H-isoindole-5,6-diol] | 658 copies per reaction | 5 copies per reaction | 4 copies per reaction | 68 copies per reaction | 3654 copies per reaction | 0% | 0% | 0% | 1% | 5% | 1.5 mm | 1.5 mm | 2.5 mm | 0 | 0 | 0 |
| O=C(c1cnc(N2CCN(C3CCCC3)CC2)nc1)N1CC2CC(O)C(O)CC2C1 (stereo not drawn) [IIIG, 2-{[2-(4-cyclopentylpiperazin-1-yl)pyrimidin-5-yl]carbonyl}-octahydro-1H-isoindole-5,6-diol] | 756 copies per reaction | 12 copies per reaction | 5 copies per reaction | 76 copies per reaction | 9654 copies per reaction | 3% | 0% | 0% | 1% | 7% | 2.4 mm | 1.5 mm | 0.8 mm | 3 | 0 | 0 |
| Cc1nc(N2CCN(C3CCCC3)CC2)ncc1C(=O)N1CC2CC(O)C(O)CC2C1 (stereo not drawn) [IIIH, 2-{[2-(4-cyclopentylpiperazin-1-yl)-4-methylpyrimidin-5-yl]carbonyl)-octahydro-1H-isoindole-5,6-diol] | 456 copies per reaction | 15 copies per reaction | 6 copies per reaction | 56 copies per reaction | 3657 copies per reaction | 1% | 2% | 1% | 3% | 1% | 0.7 mm | 0.9 mm | 1.2 mm | 14 | 2 | 16 |
| O=C(c1cnc(N2CCNCC2)nc1)N1CC2CC(O)C(O)CC2C1 (stereo not drawn) [IIII, 2-{[2-(piperazin-1-yl)pyrimidin-5-yl]carbonyl}-octahydro-1H-isoindole-5,6-diol] | 435 copies per reaction | 9 copies per reaction | 8 copies per reaction | 45 copies per reaction | 8654 copies per reaction | 2% | 3% | 1% | 2% | 2% | 1.2 mm | 0.3 mm | 0.8 mm | 2 | 3 | 12 |
| Cc1nc(N2CCNCC2)ncc1C(=O)N1CC2CC(O)C(O)CC2C1 (stereo not drawn) [IIIJ, 2-{[4-methyl-2-(piperazin-1-yl)pyrimidin-5-yl]carbonyl}-octahydro-1H-isoindole-5,6-diol] | 578 copies per reaction | 0 copies per reaction | 7 copies per reaction | 578 copies per reaction | 7546 copies per reaction | 1% | 4% | 2% | 2% | 3% | 1.1 mm | 2.0 mm | 1.6 mm | 12 | 4 | 2 |
| O=C(c1cnc(N2CCN(n3cccc3)CC2)nc1)N1CC2CC(O)C(O)CC2C1 (stereo not drawn) [IIIK, 2-({2-[4-(1H-pyrrol-1-yl)piperazin-1-yl]pyrimidin-5-yl}carbonyl)-octahydro-1H-isoindole-5,6-diol] | 635 copies per reaction | 0 copies per reaction | 3 copies per reaction | 65 copies per reaction | 8420 copies per reaction | 0% | 0% | 1% | 2% | 8% | 0.5 mm | 0.9 mm | 0.8 mm | 0 | 0 | 14 |
| Cc1nc(N2CCN(n3cccc3)CC2)ncc1C(=O)N1CC2CC(O)C(O)CC2C1 (stereo not drawn) [IIIL, 2-({4-methyl-2-[4-(1H-pyrrol-1-yl)piperazin-1-yl]pyrimidin-5-yl}carbonyl)-octahydro-1H-isoindole-5,6-diol] | 524 copies per reaction | 0 copies per reaction | 6 copies per reaction | 54 copies per reaction | 5840 copies per reaction | 0% | 0% | 0% | 0% | 7% | 1.5 mm | 1.5 mm | 2.5 mm | 0 | 0 | 0 |
